Columns and labels:
modified Ah receptor = assay: Induction of the transgene in DBA mice; format: in vivo, mouse
Text: (§1) In addition to the use of this promoter as a general regulatable system for the expression of transgenes this strategy can be exploited to obtain expression targeted to specific cell types. Thus, for example, when the transgene is incorporated into cells containing a modified hydrocarbon receptor, the inducability of the transgene is modulated. […] In addition, the introduction of an Ah receptor responsive to 3-methylcholanthrene into a specific cell, e.g. through the use of a tissue-specific promoter element, will allow tissue-specific induction of a transgene in this mouse on administration of 3-methylcholanthrene. This strategy exploits the fact that the Ah receptor in DBA mice through mutation is non-responsive to certain classes of agents which induce by this mechanism. […] Therefore, using a combination of different forms of the Ah receptor with different types of inducing agent will allow much more precise regulation of transgene expression in cells.

[1] = test system: CYP1A1/β-galactosidase promoter/reporter; assay: β-galactosidase staining of tissue sections from transgenic mice carrying pAhIR1β-gal after 3-MC induction; details: for β-Galactosidase staining intensity: mice carrying pAHIR1, 3-MC 40 μg/g once a day for 3 days; for induction of lacZ expression in the liver: 9 kb rat CYP1A1 promoter-lacZ transgenic mice, IP 40 mg/kg for 3 days, 40 mg/kg
Text: The protocol described below has been adapted to analyse the β-galactosidase expression from transgenic mice and in this regard determine the activity of the P450 1A1 promoter which is effectively driving the expression of this transgene in response to induction of P450 1A1 by the carcinogenic agent 3-methylcholanthrene. All timings in this protocol are critical.
When performing this technique it is essential to incorporate a positive control into the reaction where a tissue sample which is a known expresser of β-galactosidase is treated in an identical manner to that of the test tissues. […] The positive control used in these experiments was a small intestine sample which was a known high expressor of the detection enzyme.
1) The mouse under test was killed by cervical dislocation and the organs required were removed using a sterile scalpel. A small representative piece of mouse organ was fixed on to moistened cork using commercial adhesive. The tissue sample on the cork was then frozen in liquid nitrogen chilled freezing spray (Histological Supplies LTD) for approximately 30 seconds. The tissue sample was then double wrapped in parafilm, placed in a plastic bag, sealed and snap frozen in liquid nitrogen.
4) The metal chuck was placed in the cryostat holder and turned until the tip of the tissues touched the front of the cutting blade. The cryostat was set to obtain small sections approximately 8 microns thickness. By turning the handle of the cryostat small sections of tissue were obtained. Sections were continually taken until a representative section of tissue was obtained. The antiroll plate was then placed against the blade and a section to be harvested was cut.
9) Slides were produced as described using the cryostat and the tissue was fixed in 0.5% glutaraldehyde (in PBS) for 1 day at 4° C. 10) The tissue was then incubated in PBS +2mM MgCl2+30% sucrose at 4° C. overnight.
13) 2-3 hours in X-gal solution at 37° C. or even overnight.
19) The slides were then mounted in DPX and viewed under a microscope. It was important at this stage that the slides were never permitted to dry out since this will affect the quality of the results. The slides should be continually dipped into the histoclear solution to prevent this occurring while the slides are being prepared.
The expected results from the β-galacotsidase staining assay are areas of pink which uniformly stain the tissue section and small areas of blue in the tissue section which indicate areas where X-gal has been metabolised by the β-galactosidase enzyme.
The inducibility of expression. The pAhIR1βgal transgene in the liver was examined after administration of 3-methylcholanthrene (3-mc). The inducing agent was administered IP at a dosage of 40 mg/kg for 3 days and the animals were sacrificed for expression on day four. The induction in the transgenic animals was controlled by:
a) administration of corn oil to transgenic mice,
b) the administration of 3-methylcholanthrene (3-mc) to non-transgenic littermates.
lacZ expression was also investigated in a number of other tissues. The same procedure for sectioning and staining tissue sections was employed.

Ah receptor = assay: Induction of the transgene in C57 BL6 mice; format: in vivo, mouse
Text: as §1

[2] = test system: CYP1A1 dioxin-responsive promoter coupled to CAT reporter gene; details: 2.58 kbp mouse CYP1A1 fragment-CAT transgenic mice, cited from earlier work
β-galactosidase activity = assay: β-galactosidase staining of tissue sections from non-transgenic controls treated with 3-MC; format: in vivo, mouse
Text: All timings in this protocol are critical.

In the case of `Clc1cc2c(cc1Cl)Oc1cc(Cl)c(Cl)cc1O2` [tetrachlorodibenzodioxin], the “induction of the transgene” value (modified Ah receptor) is reported as “induction can still be obtained”.
For `Cc1ccc2cc3c(ccc4ccccc43)c3c2c1CC3` [3-methylcholanthrene], the β-Galactosidase staining intensity ([1]; Adrenal gland) was “+++”, the β-Galactosidase staining intensity ([1]; Colon) was “+” and the β-Galactosidase staining intensity ([1]; Duodenum) was “+++”. The β-Galactosidase staining intensity ([1]; Forestomach) was “+”, the β-Galactosidase staining intensity ([1]; Ileum) was “+++” and the β-Galactosidase staining intensity ([1]; Jejunum) was “+++”. For the same molecule, the β-Galactosidase staining intensity ([1]; Kidney) was “++”, the “3-mc induced lacZ expression in tissues” value ([1]; Liver, Kidney, Brain (specific regions), Duodenum, Jejunum, Ileum, Lung, Spleen, Oesophagus, Colon, Pancreas, Adrenal Gland, Ovary) was “detected” and the β-Galactosidase staining intensity ([1]; Liver) was “++++”. For the same molecule, the β-Galactosidase staining intensity ([1]; Lung) was “+”, the β-Galactosidase staining intensity ([1]; Oesophagus) was “++” and the β-Galactosidase staining intensity ([1]; Ovary) was “+”. For the same molecule, the β-Galactosidase staining intensity ([1]; Pancreas) was “+”, the β-Galactosidase staining intensity ([1]; Spleen) was “++” and the β-Galactosidase staining intensity ([1]; Stomach) was “+”. For the same molecule, the β-Galactosidase staining intensity ([1]; Testes) was “+”, the “induction of lacZ expression in the liver” value ([1]; listed as 3-mc) was “very high” and the “induction of lacZ expression in the liver” value ([1]; listed as 3-methyl-cholanthene) was “massive induction”. For the same molecule, the “induction of expression in spleen and bowel” value ([1]; spleen and bowel, 9 kb rat CYP1A1 promoter transgenic mice) was “substantial induction”, the “induction of the transgene” value (Ah receptor) was “an inducer of the transgene” and the “induction of the transgene” value (modified Ah receptor) was “not an inducer of the transgene”. The “increase of hepatic expression levels (CAT reporter)” value ([2]; liver, versus mock-induction) was ≤ 10,000 fold, the “induction of CAT expression” value ([2]; spleen, small bowel, kidney and lung) was “More modest levels of induction” and the β-Galactosidase staining intensity (β-galactosidase activity; Duodenum) was “+”. The β-Galactosidase staining intensity (β-galactosidase activity; Ileum) was “+”, the β-Galactosidase staining intensity (β-galactosidase activity; Jejunum) was “+” and the β-Galactosidase staining intensity (β-galactosidase activity; Kidney) was “+”.

Source: patent publication US20030028906A1, “Gene control” (priority 1995, published 2003)
